Experiments:
FXR = molecular target: T1, FXR (Homo sapiens, UniProt Q96RI1); assay: FXR transcriptional activation, Dual-Luciferase Reporter Assay in HEK293T cells; type: cell-based
T1 construct: expressed in transfected cells; host or cells: HEK293T
T1 sequence (Q96RI1 1-486): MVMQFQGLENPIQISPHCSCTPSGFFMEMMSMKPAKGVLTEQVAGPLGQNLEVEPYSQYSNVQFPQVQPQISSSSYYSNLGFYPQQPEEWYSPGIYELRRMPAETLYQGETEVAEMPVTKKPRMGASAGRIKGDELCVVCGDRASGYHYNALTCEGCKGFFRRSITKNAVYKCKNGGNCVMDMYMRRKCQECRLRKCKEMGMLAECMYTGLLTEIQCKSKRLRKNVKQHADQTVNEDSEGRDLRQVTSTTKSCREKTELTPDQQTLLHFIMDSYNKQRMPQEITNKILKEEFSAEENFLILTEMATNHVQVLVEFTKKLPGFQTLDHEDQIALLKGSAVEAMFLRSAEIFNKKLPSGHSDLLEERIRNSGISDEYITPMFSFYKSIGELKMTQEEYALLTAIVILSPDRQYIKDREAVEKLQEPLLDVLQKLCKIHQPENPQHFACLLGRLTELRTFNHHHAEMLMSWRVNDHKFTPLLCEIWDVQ
T1 sequence (P19793 1-462 partner): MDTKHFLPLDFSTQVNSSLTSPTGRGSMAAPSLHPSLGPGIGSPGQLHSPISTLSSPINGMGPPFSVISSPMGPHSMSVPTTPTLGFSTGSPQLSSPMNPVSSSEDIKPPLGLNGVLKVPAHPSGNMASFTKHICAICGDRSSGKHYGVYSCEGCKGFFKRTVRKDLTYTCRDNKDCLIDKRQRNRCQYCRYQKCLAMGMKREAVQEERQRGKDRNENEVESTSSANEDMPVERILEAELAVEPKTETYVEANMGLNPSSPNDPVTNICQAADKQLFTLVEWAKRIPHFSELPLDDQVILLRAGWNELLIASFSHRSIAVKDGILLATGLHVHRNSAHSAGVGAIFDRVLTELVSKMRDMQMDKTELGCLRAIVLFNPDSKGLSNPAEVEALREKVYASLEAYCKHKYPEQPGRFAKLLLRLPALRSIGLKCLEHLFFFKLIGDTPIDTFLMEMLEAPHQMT
Procedure: The phFXR, phRXR (retinoid X receptor) and FXR-dependent reporter (EcRE-LUC) were expressed and cotransfected with the Gal4 reporter vector MH100 × 4-TK-Luc, then 1 μg of the relevant plasmid was combined with 1 μg of reporter plasmids and 0.1 μg of pREP7 (Renilla Luciferase) reporter, which was used to normalize transfection efficiencies. HEK293T cells were dispensed into 96 well plates using a volume of 100 μL and 1 × 10^5 cells per well.

[1] = design: method as in Liu et al. (2022); conditions: oral administration of Qingfei Paidu Decoction, ref Liu et al. (2022); cited from earlier work
AB23A hydrolysis in HLMs = assay: Chemical inhibition assay of AB23A hydrolysis in HLMs; type: biochemical, human; conditions: HLMs 0.1 mg/mL, AB23A 20 μM, 1 h; BNPP 50 μM, LPA 100 μM, GA 100 μM, boceprevir 20 μM, EDTA 20 μM
Procedure: (§1) The inhibitory effects of a series of selective inhibitors of human hydrolases against AB23A hydrolysis were assessed. The selective inhibitors of human hydrolases including BNPP (50 μM, a specific inactivator of CES), boceprevir (20 μM, a potent inhibitor for CTSA), LPA (100 μM, a selective inhibitor for CES2A), GA (100 μM, a cholinesterase inhibitor), EDTA (20 μM, a selective PONs inhibitor). The incubation system included PBS, inhibitors, HLMs (0.1 mg/mL)/human plasma (25% dilution), and AB23A (20 μM). After reacting for 1 h, ice-cold acetonitrile was used to terminate the reaction. The supernatants by centrifuging were used to quantify the formation rates of AB by LC-UV analysis.

AB23A hydrolysis in HIMs = assay: Chemical inhibition assay of AB23A hydrolysis in HIMs; type: biochemical, human; conditions: BNPP 50 μM, LPA 100 μM
[2] = tested on: AB23A hydrolysis in human plasma; assay: Chemical inhibition assay of AB23A hydrolysis in human plasma; type: biochemical; conditions: human plasma 25% dilution, AB23A 20 μM, 1 h; GA 100 μM, boceprevir 20 μM, EDTA 20 μM
Procedure: as §1

[3] = tested on: T2, CC(=O)O[C@H](C[C@@H](C)C1=C2C[C@H](O)C3[C@@]4(C)CCC(=O)C(C)(C)C4CC[C@]3(C)[C@@]2(C)CC1)[C@H]1OC1(C)C; assay: Kinetic analysis of AB23A hydrolysis in hSA; type: in vitro ADME, human; conditions: other: hSA
T2 construct: purchased Sigma-Aldrich Lot#SLCC9268
Procedure: (§2) The enzymatic kinetics of AB23A hydrolysis in different tissue preparations (HLMs, HIMs, human plasma) and human recombinant enzymes (hCES1A, hCES2A, hSA, hBchE) were analyzed. The incubation system (200 μL) consisted of PBS, each tested enzyme, and AB23A (ranging from 0 to 1,000 μM). After incubating for 1 h, the supernatants were then used for LC-UV analysis. The kinetic parameters of AB23A hydrolysis were fitted by the following Michaelis−Menten Eq. 1 ([Zhang et al., 2022]). V=(Vmax×[S])⁄(Km+[S]) (1) Here, K m is the Michaelis constant of AB23A hydrolysis, V max is the maximum velocity of AB23A hydrolysis, V max /K m is used to calculate the intrinsic clearance (CL int ).

[4] = substrate: CC(=O)O[C@H](C[C@@H](C)C1=C2C[C@H](O)C3[C@@]4(C)CCC(=O)C(C)(C)C4CC[C@]3(C)[C@@]2(C)CC1)[C@H]1OC1(C)C; assay: Kinetic analysis of AB23A hydrolysis in hCES1A; type: in vitro ADME, human; conditions: other: hCES1A
Procedure: as §2

[5] = substrate: CC(=O)O[C@H](C[C@@H](C)C1=C2C[C@H](O)C3[C@@]4(C)CCC(=O)C(C)(C)C4CC[C@]3(C)[C@@]2(C)CC1)[C@H]1OC1(C)C; assay: Kinetic analysis of AB23A hydrolysis in hCES2A; type: in vitro ADME, human; conditions: other: hCES2A
Procedure: as §2

For `C[C@H](C[C@H](O)[C@H]1OC1(C)C)C1=C2C[C@H](O)[C@H]3[C@@]4(C)CCC(=O)C(C)(C)[C@@H]4CC[C@]3(C)[C@@]2(C)CC1` [AB, alisol B], the “FXR agonist effect (transcriptional activation)” value (FXR; HEK293T cells, 5, 10, 20 μM, 48 h, GW4064 (10 μM) set at 100%) is listed as “dose-dependently agonize FXR”, the “FXR activation compared with AB23A” value (FXR; HEK293T cells, low doses (5 and 10 μM)) is listed as “slightly more potent than AB23A” and the “Detection in mice plasma and liver” value [1] is listed as “readily detected”.

In the case of `O=[N+]([O-])c1ccc(OP(=O)(O)Oc2ccc([N+](=O)[O-])cc2)cc1` [BNPP, bis(p-nitrophenyl) phosphate], the “Effect on AB23A hydrolysis in HLMs” value (AB23A hydrolysis in HLMs) is reported as “completely blocked” and the “Effect on formation of AB (AB23A hydrolysis) in HIMs” value (AB23A hydrolysis in HIMs) is reported as “near-completely inhibited”.

For `O=C(O)CN(CCN(CC(=O)O)CC(=O)O)CC(=O)O` [EDTA, Ethylenediaminetetraacetic acid], the “Effect on formation of AB (AB23A hydrolysis) in human plasma” value (“Effect on formation … in human plasma” below) [2] was “negligible effects” and the “Effect on AB23A hydrolysis in HLMs” value (AB23A hydrolysis in HLMs) was “negligible effects”.

In the case of `COc1ccc2c3c1O[C@H]1C[C@@H](O)C=C[C@@]31CCN(C)C2` [GA, galanthamine], the “Effect on formation … in human plasma” value [2] is reported as “significantly inhibit” and the “Effect on AB23A hydrolysis in HLMs” value (AB23A hydrolysis in HLMs) is reported as “slightly blocked”.

With `CN(C)C(=O)C(CCN1CCC(O)(c2ccc(Cl)cc2)CC1)(c1ccccc1)c1ccccc1` [LPA, Loperamide] the “Effect on AB23A hydrolysis in HLMs” value (AB23A hydrolysis in HLMs) was “slightly blocked” and the “Effect on formation of AB (AB23A hydrolysis) in HIMs” value (AB23A hydrolysis in HIMs) was “partially inhibit”.

With `CC(C)(C)NC(=O)N[C@H](C(=O)N1C[C@H]2[C@@H]([C@H]1C(=O)NC(CC1CCC1)C(=O)C(N)=O)C2(C)C)C(C)(C)C` (stereo partly shown) [boceprevir, Boceprevir] the “Effect on formation … in human plasma” value [2] was “negligible effects” and the “Effect on AB23A hydrolysis in HLMs” value (AB23A hydrolysis in HLMs) was “negligible effects”.

hSA (Homo sapiens) showed a Vmax [3] of 0.0004 µmol/min/mg and a Vmax/Km [3] of 1.53 µL/min/mg.

B1: hCES1A (Homo sapiens) (protein)
chain: GHPSSPPVVDTVHGKVLGKFVSLEGFAQPVAIFLGIPFAKPPLGPLRFTPPQPAEPWSFVKNATSYPPMCTQDPKAGQLLSELFTNRKENIPLKLSEDCLYLNIYTPADLTKKNRLPVMVWIHGGGLMVGAASTYDGLALAAHENVVVVTIQYRLGIWGFFSTGDEHSRGNWGHLDQVAALRWVQDNIASFGGNPGSVTIFGESAGGESVSVLVLSPLAKNLFHRAISESGVALTSVLVKKGDVKPLAEQIAITAGCKTTTSAVMVHCLRQKTEEELLETTLKMKFLSLDLQGDPRESQPLLGTVIDGMLLLKTPEELQAERNFHTVPYMVGINKQEFGWLIPMQLMSYPLSEGQLDQKTAMSLLWKSYPLVCIAKELIPEATEKYLGGTDDTVKKKDLFLDLIADVMFGVPSVIVARNHRDAGAPTYMYEFQYRPSFSSDMKPKTVIGDHGDELFSVFGAPFLKEGASEEEIRLSKMVMKFWANFARNGNPNGEGLPHWPEYNQKEGYLQIGANTQAAQKLKDKEVAFWTNLFAKKAVEKPPQTE
notes: 10xHis; made in house; host or cells: HEK293-F cells, pTT5 vector, purified from conditioned medium
With B1 the Vmax [4] was 0.0235 µmol/min/mg and the Vmax/Km [4] was 123 µL/min/mg.

B2: hCES2A (Homo sapiens) (protein)
chain: QDSASPIRTTHTGQVLGSLVHVKGANAGVQTFLGIPFAKPPLGPLRFAPPEPPESWSGVRDGTTHPAMCLQDLTAVESEFLSQFNMTFPSDSMSEDCLYLSIYTPAHSHEGSNLPVMVWIHGGALVFGMASLYDGSMLAALENVVVVIIQYRLGVLGFFSTGDKHATGNWGYLDQVAALRWVQQNIAHFGGNPDRVTIFGESAGGTSVSSLVVSPISQGLFHGAIMESGVALLPGLIASSADVISTVVANLSACDQVDSEALVGCLRGKSKEEILAINKPFKMIPGVVDGVFLPRHPQELLASADFQPVPSIVGVNNNEFGWLIPKVMRIYDTQKEMDREASQAALQKMLTLLMLPPTFGDLLREEYIGDNGDPQTLQAQFQEMMADSMFVIPALQVAHFQCSRAPVYFYEFQHQPSWLKNIRPPHMKADHGDELPFVFRSFFGGNYIKFTEEEEQLSRKMMKYWANFARNGNPNGEGLPHWPLFDQEEQYLQLNLQPAVGRALKAHRLQFWKKALPQKIQELEEPEERHTEL
notes: as for B1
With B2 the Vmax [5] was 0.0125 µmol/min/mg and the Vmax/Km [5] was 212 µL/min/mg.

— publication PMC10117764, “The roles of serine hydrolases and serum albumin in alisol B 23-acetate hydrolysis in humans” (Frontiers in Pharmacology, 2023)
